From patent publication US8633186B2, “Modulation of chemosensory receptors and ligands associated therewith” (Senomyx Inc., priority 2007, dated 2014)

melting point [°C] | Structure (SMILES)
235 to 236 | CC(C)(COc1cccc2c1C(N)=NS(=O)(=O)N2)NC(=O)c1ccccc1 [Example 216, N-(1-(4-amino-2,2-dioxide-1H-benzo[c][,6]thiadiazin-5-yloxy)-2′-methylpropan-2′-yl)benzamide]
221 | O=C(NC1CCCCC1)c1c(O)c2ccccc2[nH]c1=O [Example 73, N-cyclohexyl-4-hydroxy-2-oxo-1,2-dihydroquinoline-3-carboxamide]
246 to 247 | NC1=NS(=O)(=O)Nc2cccc(OCC3CC3)c21 [Example 186, (S)-4-Amino-5-(cyclopropylmethoxy)-1H-benzo[c][1,2,6]thiadiazine-2,2-dioxide]
> 260 | Nc1nc(=O)[nH]c2sc3c(c12)CCOC3 [Example 146, 4-Amino-5,6-(5′,7′-dihydro-4′H-[2′,3′-c]pyrano)thieno[2,3-d]-pyrimidine-2(1H)-one]
